For the test, the target named is T1, SIRT1 (Homo sapiens, UniProt Q96EB6).
T1 sequence (Q96EB6 2-747): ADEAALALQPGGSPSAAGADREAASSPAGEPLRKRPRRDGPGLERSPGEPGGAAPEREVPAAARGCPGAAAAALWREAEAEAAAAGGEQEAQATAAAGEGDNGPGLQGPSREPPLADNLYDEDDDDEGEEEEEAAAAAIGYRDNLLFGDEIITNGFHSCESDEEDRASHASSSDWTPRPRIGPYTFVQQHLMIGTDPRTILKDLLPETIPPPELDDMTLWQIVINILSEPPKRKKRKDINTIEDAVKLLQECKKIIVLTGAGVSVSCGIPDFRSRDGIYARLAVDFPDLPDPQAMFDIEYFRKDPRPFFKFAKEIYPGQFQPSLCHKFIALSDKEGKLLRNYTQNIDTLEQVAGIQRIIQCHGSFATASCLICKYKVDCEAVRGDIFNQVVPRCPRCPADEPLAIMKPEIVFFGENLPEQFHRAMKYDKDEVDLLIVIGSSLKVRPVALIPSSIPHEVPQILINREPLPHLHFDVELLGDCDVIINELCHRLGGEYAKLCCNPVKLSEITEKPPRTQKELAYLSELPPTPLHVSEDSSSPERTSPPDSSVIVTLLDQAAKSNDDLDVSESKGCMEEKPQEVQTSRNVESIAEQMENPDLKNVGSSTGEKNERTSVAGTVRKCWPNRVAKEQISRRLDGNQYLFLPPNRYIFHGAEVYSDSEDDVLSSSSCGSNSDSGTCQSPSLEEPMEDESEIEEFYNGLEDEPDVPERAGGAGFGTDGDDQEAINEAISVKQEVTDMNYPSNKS
Nature of the test: SensoLyte […] fluorimetric SIRT1 deacetylase activity assay kit. The class given is biochemical.

The results in this text go back to paper PMC5166496 (International Journal of Biological Sciences, 2016).

In general, IC50 refers to the concentration that inhibits the measured activity by half. A low value points to greater potency. The compound `CC(C)(C)c1cc(C=C2C(=O)NC(=S)NC2=O)cc(C(C)(C)C)c1O` [MHY2256, 5-(3,5-Di-tert-butyl-4-hydroxybenzylidene)-2-thioxodihydropyrimidine-4,6(1H,5H)-dione] had an IC50 of 270 µM.
